Measurements as given in ChEMBL document CHEMBL1128612, “Synthesis and biological activity of enantiomers of a conformationally restricted muscarone analog” (Bioorg Med Chem Lett, 1995).
pKi: −log10 of the molar value.

Columns and labels:
[1] = target: T1, Muscarinic acetylcholine receptor M1 (Rattus norvegicus, UniProt P08482)
T1 sequence (P08482 whole entry): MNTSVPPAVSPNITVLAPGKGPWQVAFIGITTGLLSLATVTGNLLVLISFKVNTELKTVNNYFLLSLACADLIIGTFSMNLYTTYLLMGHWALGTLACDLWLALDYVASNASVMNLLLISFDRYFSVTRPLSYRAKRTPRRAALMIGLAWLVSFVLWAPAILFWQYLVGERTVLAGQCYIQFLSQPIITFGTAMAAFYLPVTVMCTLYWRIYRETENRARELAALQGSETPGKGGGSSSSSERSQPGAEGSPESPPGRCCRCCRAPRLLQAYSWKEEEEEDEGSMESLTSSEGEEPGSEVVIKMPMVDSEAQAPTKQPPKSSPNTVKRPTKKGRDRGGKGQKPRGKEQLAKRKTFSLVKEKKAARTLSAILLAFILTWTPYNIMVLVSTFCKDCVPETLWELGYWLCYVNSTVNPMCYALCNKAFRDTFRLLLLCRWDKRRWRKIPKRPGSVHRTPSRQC
Description: Compound was evaluated for its affinity towards Muscarinic acetylcholine receptor M1, using [3H]- pirenzepine, a radioligand displacement assay in rat hippocampal membranes

[2] = target: T2, Muscarinic acetylcholine receptor M2 (Rattus norvegicus, UniProt P10980)
T2 sequence (P10980 whole entry): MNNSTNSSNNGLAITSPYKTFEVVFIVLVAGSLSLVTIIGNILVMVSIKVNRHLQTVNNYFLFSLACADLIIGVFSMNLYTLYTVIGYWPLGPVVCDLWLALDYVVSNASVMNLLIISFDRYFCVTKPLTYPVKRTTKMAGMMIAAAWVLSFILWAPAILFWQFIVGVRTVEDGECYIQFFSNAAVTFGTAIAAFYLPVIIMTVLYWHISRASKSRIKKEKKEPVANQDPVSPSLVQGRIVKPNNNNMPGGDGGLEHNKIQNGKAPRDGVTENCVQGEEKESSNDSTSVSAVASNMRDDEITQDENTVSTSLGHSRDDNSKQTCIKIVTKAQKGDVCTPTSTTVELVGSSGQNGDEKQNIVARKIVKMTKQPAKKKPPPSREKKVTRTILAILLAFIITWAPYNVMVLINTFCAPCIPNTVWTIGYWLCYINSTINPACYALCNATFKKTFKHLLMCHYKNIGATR
Description: Compound was evaluated for its affinity towards Muscarinic acetylcholine receptor M2, using [3H]- N-methyl-scopolamine, a radioligand displacement assay in rat heart membranes

[3] = target: Muscarinic acetylcholine receptor M3 (Cavia porcellus) (UniProt Q8VH26)
Muscarinic acetylcholine receptor M3 (Cavia porcellus), sequence (Q8VH26 1-587): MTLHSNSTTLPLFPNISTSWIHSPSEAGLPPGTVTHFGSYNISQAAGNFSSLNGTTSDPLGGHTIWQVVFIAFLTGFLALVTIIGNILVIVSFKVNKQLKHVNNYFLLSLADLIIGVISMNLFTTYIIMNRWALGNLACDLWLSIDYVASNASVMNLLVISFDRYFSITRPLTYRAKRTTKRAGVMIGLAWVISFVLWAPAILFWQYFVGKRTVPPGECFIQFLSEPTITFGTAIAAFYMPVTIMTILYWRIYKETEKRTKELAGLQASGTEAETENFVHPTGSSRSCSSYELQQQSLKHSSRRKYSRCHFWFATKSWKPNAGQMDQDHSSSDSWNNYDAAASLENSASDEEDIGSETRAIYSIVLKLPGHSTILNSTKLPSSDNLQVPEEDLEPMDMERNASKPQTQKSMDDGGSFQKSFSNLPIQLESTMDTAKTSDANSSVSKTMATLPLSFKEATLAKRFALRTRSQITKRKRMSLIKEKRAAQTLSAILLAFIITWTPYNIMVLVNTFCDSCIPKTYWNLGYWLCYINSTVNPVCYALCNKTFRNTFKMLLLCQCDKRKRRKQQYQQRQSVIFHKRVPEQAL
Description: Compound was evaluated for dissociation constant (KA), determined from potency against Muscarinic acetylcholine receptor M3 in an isolated tissue assay (guinea pig trachea)

Compound	pKi [1]	pKi [2]	KA [3]
C[C@@H]1OC2(CCN(C)CC2)CC1=O	5.39	5.60	0.28 µM
C[C@H]1OC2(CCN(C)CC2)CC1=O	4.59	4.43	4.5 µM
CC1OC2(CCN(C)CC2)CC1=O (centres undefined)	5.42	5.28	0.7 µM
